Test results taken from patent US10517853B2, “Methods for treating epilepsy” (PTC Therapeutics, Inc., priority 2015, dated 2019).

Experiments:
CYP2C9 = CYP2C9 (Homo sapiens, UniProt P11712); assay: CYP2C9 inhibition; assay type: in vitro ADME
CYP2C8 = biological target: T1, CYP2C8 (Homo sapiens, UniProt P10632); assay: CYP2C8 inhibition; assay type: in vitro ADME
T1 sequence (P10632 1-490): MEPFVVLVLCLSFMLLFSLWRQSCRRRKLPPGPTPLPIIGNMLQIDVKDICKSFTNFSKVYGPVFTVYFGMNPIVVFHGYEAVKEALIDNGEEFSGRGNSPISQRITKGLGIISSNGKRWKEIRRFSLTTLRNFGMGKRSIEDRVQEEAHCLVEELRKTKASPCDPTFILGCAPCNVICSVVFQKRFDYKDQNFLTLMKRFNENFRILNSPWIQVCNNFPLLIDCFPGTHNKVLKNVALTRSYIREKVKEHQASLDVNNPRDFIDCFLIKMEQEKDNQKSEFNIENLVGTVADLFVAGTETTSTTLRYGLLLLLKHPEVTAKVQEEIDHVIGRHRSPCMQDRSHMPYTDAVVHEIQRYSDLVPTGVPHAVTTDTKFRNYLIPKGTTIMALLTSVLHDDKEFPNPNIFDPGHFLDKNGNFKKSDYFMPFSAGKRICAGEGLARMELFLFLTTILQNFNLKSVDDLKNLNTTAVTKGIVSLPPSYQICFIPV

[1] = tested on: SCN1A nonsense mutation W192X (UAG premature stop); assay: Luciferase reporter readthrough assay, SCN1A nonsense mutation W192X construct in 293H cells; assay type: cell-based; conditions: 293H cells transfected with construct SCN1A-Trp192x; decreasing concentrations starting at 3 uM; 24 hours; FIG. 4
Source text: (§1) Luciferase reporter constructs were generated to evaluate readthrough activity of compounds at premature stop codons present in SCN1A and CDKL5 mRNA sequences. FIG. 1 is a schematic of the reporter construct used to monitor readthrough activity of SCN1A nonsense mutation W192X (UAG premature stop). FIG. 2 is a schematic of the reporter construct used to monitor readthrough activity of CDKL5 nonsense mutation R59X (UGA premature stop). FIG. 3 is a schematic of the reporter construct used to monitor readthrough activity of CDKL5 nonsense mutation R550X (UGA premature stop). In each of the constructs, luciferase reporter is flanked by a 3XHA epitope tag at the amino-terminus and a FLAG epitope tag at the C-terminus. An intron from the TPI gene was inserted in the luciferase gene. Sequences from SCN1A (see FIG. 1) and CDKL5 (see FIGS. 2 and 3) harboring disease-associated nonsense mutations were introduced in-frame with the reporter sequence such that readthrough at the premature stop codon results in the production of a functional luciferase protein.
(§2) 293H cells were transfected with either construct SCN1A-Trp192x (FIG. 1), construct CDKL5-R59X (FIG. 2), or construct CDKL5-R550X (FIG. 3). […] The ability of ataluren to promote readthrough at the premature stop codon in each of the constructs was measured and reported as the relative light units (y-axis). […]

[2] = tested on: CDKL5 nonsense mutation R550X (UGA premature stop); assay: Luciferase reporter readthrough assay, CDKL5 nonsense mutation R550X construct in 293H cells; assay type: cell-based; conditions: 293H cells transfected with construct CDKL5-R550X; decreasing concentrations starting at 3 uM; 24 hours; FIG. 5
Source text: as §1, §2

[3] = tested on: CDKL5 nonsense mutation R59X (UGA premature stop); assay: Luciferase reporter readthrough assay, CDKL5 nonsense mutation R59X construct in 293H cells; assay type: cell-based; conditions: 293H cells transfected with construct CDKL5-R59X; decreasing concentrations starting at 3 uM; 24 hours; FIG. 5
Source text: as §1, §2

CYP2C9, sequence (P11712 whole entry): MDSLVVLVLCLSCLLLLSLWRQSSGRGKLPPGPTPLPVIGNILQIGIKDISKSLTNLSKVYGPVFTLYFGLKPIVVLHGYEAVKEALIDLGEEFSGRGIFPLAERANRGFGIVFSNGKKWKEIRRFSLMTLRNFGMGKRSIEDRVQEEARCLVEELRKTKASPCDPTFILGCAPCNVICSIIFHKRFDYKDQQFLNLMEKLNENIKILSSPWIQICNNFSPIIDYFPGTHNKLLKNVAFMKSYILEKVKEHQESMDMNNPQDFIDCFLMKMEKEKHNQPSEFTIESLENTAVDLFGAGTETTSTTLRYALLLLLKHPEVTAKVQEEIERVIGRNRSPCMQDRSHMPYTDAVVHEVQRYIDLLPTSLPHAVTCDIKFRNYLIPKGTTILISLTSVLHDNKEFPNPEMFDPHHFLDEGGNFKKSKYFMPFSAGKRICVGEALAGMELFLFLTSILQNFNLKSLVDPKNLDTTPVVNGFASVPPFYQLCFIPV

- inhibition of CYP2C9 (CYP2C9): weak inhibitor
- inhibition of CYP2C8 (CYP2C8): weak inhibitor
Compound: O=C(O)c1cccc(-c2noc(-c3ccccc3F)n2)c1 [ataluren, 3-[5-(2-fluoro-phenyl)-[1,2,4]oxadiazol-3-yl]-benzoic acid]
- readthrough at the premature stop codon (luciferase, relative light units; fold increase compared to DMSO) [1]: promotes concentration-dependent readthrough
- readthrough at the premature stop codon (luciferase, relative light units; fold increase compared to DMSO) [2]: promotes concentration-dependent readthrough
- readthrough at the premature stop codon (luciferase, relative light units; fold increase compared to DMSO) [3]: promotes concentration-dependent readthrough
